Values quoted from earlier work, collected in publication PMC12308805, “Ultrahigh-Throughput Virtual Screening Strategies against PPI Targets: A Case Study of STAT Inhibitors” (Journal of Chemical Information and Modeling, 2025).
Read-outs that look alike come from different tables or passages of the source. Square brackets hold non-standard residues; d marks the D form. Peptide text beside a SMILES is read from it. pY = N[C@@H](Cc1ccc(OP(=O)(O)O)cc1)C(=O)O; aThr = C[C@H](O)[C@H](N)C(=O)O

Tested on: STAT3
Details: cited from earlier work; for Type: retrospective screening set for STAT3 SH2 domain (PDB 6QHD), ref DUD-E
[1] = sheet 6QHD_actives_decoys, decoys generated with DUD-E and presumed inactive, not tested
[2] = sheet 6QHD_actives_decoys, decoys are presumed inactives, not tested
[3] = sheet 6QHD_actives_decoys, known STAT3 actives of the retrospective screening set, ref ChEMBL / literature

| SMILES | Type [1] | further results |
| --- | --- | --- |
| COC(=O)c1sc(S(=O)(=O)NCC(=O)OCC(=O)Nc2cccc(C#N)c2)c(C(=O)OC)c1C [Decoy364] | Inactive (Decoy) |  |
| O=C(CCSc1n[nH]c(N/N=C/c2cccc(Br)c2)n1)Nc1ccccc1[N+](=O)[O-] [Decoy421] | Inactive (Decoy) |  |
| CCN[C@H](c1cc(Br)ccc1Cl)c1cc(Br)ccc1Br [Decoy479] | Inactive (Decoy) |  |
| COc1ccc(NC(=O)C2=C(C)NC(SCC(=O)Nc3cccc(OC)c3)=C(C#N)[C@@H]2c2ccco2)cc1 [Decoy357] | Inactive (Decoy) |  |
| O=C(NCCCN1CCN(CCCNC(=O)c2cc3ccccc3oc2=O)CC1)c1cc2ccccc2oc1=O [Decoy526] | Inactive (Decoy) |  |
| CC[N+]1=c2cc3c(cc2CCC1)=Nc1cc2c(cc1O3)N(CCCC(=O)NCCCCCNC(=O)CCCC[C@@H]1SC[C@@H]3NC(=O)N[C@@H]31)C(C)(C)C=C2CS(=O)(=O)[O-] [Decoy583] | Inactive (Decoy) |  |
| CCOC(=O)C1=C(SC)S[C@@H](/C(C(=O)OCC)=C2/NN=C(c3ccccc3)O2)N=C1N [Decoy644] |  | Type (sheet 6QHD_actives_decoys, […]): Inactive (Decoy) |
| O=C(O)C[C@H](NS(=O)(=O)c1cc(S(=O)(=O)N[C@@H](CC(=O)O)c2ccccc2)c2cccc3c2c1NC3=O)c1ccccc1 [Decoy893] |  | Type [2]: Inactive (Decoy) |
| O=C(CN(c1cccc([N+](=O)[O-])c1)S(=O)(=O)c1ccccc1)Nc1ccccc1C(=O)NCc1ccco1 [Decoy365] | Inactive (Decoy) |  |
| Nc1nc(OCc2cc(Br)cs2)c2ncn(CCCCCCCCO[C@H]3O[C@@H](CO)[C@@H](O)[C@@H](O)[C@@H]3O)c2n1 [Decoy331] | Inactive (Decoy) |  |
| CCOC(=O)C1=C(C)N(CCOC)C(=O)/C1=C\c1ccc(CNC(=O)C(=O)Nc2ccc(C(=O)OCC)cc2)o1 [Decoy951] |  | Type [2]: Inactive (Decoy) |
| CCN1C(=O)[C@@](C)(C(=O)Nc2ccc(S(=O)(=O)Nc3nccs3)cc2)Oc2ccccc21 [Decoy608] |  | Type (sheet 6QHD_actives_decoys, […]): Inactive (Decoy) |
| COC1=C(S[C@@H]2O[C@H](COC(C)=O)[C@@H](OC(C)=O)[C@H](OC(C)=O)[C@H]2OC(C)=O)C(=O)c2c(O)ccc(O)c2C1=O [Decoy719] | Inactive (Decoy) |  |
| CC(C)C[C@H](NC(=O)/C=C/c1ccc(OP(=O)(O)O)cc1)C(=O)N1CCC[C@H]1C(=O)N[C@H](COCc1ccccc1)COC(N)=O [CHEMBL573902] |  | Type (known STAT3 active) [3]: Active |
| O=C(OC[C@@H]1O[C@H](Oc2ccc(O)cc2COC(=O)[C@@]2(O)[C@@H](O)CCC(=O)[C@@H]2O)[C@H](OC(=O)[C@H]2C=CCC2)[C@H](O)[C@@H]1O)[C@H]1C=CCC1 [Decoy886] |  | Type [2]: Inactive (Decoy) |
| CCOc1cc(/C=N/N=C2\NC(=O)[C@@H](CC(=O)O)S2)cc(Br)c1OS(=O)(=O)c1ccc(C)cc1 [Decoy551] | Inactive (Decoy) |  |
| COCCN(C/C(O)=N/c1nc(-c2ccc(Cl)cc2)cn1-c1ccc(OC)cc1)C(=O)C1CCCC1 [Decoy663] | Inactive (Decoy) |  |
| CSCC[C@H](NC(=O)[C@H](CCC(N)=O)NC(=O)[C@H]1CCCN1C(=O)[C@H](CCCCN)NC(=O)[C@H](Cc1ccc(OP(=O)(O)O)cc1)NC(C)=O)C(=O)N[C@@H](Cc1c[nH]cn1)C(N)=O [CHEMBL160733] (Ac-[pY]K[dP]QMH-NH2) |  | Type (known STAT3 active) [3]: Active |
| COC(=O)c1ccc2c(=O)n(CCc3ccc(S(N)(=O)=O)cc3)c(SCC(=O)Nc3ccc(C)cc3)nc2c1 [Decoy496] | Inactive (Decoy) |  |
| Nn1c(N/N=C/c2ccc([N+](=O)[O-])cc2)nnc1SCC(=O)Nc1ccc(OC(F)(F)F)cc1 [Decoy441] | Inactive (Decoy) |  |

| SMILES | Type [1] | further results |
| --- | --- | --- |
| O=C(Nc1ccc2c(O)c(/N=N/c3ccccc3)c(S(=O)(=O)O)cc2c1)Nc1ccc2c(O)c(/N=N/c3ccccc3)c(S(=O)(=O)O)cc2c1 [Decoy486] | Inactive (Decoy) |  |
| CCOC(=O)[C@@](NC(=O)c1cccc(Cl)c1)(Nc1ccc(S(=O)(=O)Nc2ccc(OC)nn2)cc1)C(F)(F)F [Decoy464] | Inactive (Decoy) |  |
| COc1cc(/C(C)=N/NC(=O)c2nnn(-c3nonc3N)c2COc2ccc(F)cc2)ccc1OCc1ccc(Cl)cc1 [Decoy887] |  | Type [2]: Inactive (Decoy) |
| COc1cc([C@@H]2OC[C@H]3[C@@H]2CO[C@@H]3c2cc(OC)c(O[C@@H]3O[C@H](CO)[C@@H](O)[C@H](O)[C@H]3O[C@@H]3OC[C@](O)(CO)[C@H]3O)c(OC)c2)cc(OC)c1O [Decoy817] |  | Type [2]: Inactive (Decoy) |
| CC(C)C[C@H](NC(=O)/C=C/c1ccc(OP(=O)(O)O)cc1)C(=O)N1CCC[C@H]1C(=O)N[C@@H](COC(N)=O)C(=O)NCc1ccccc1 [CHEMBL414034] |  | Type (known STAT3 active) [3]: Active |
| CC1(C)CC[C@]2(C(=O)O[C@@H]3O[C@H](CO)[C@@H](O)[C@H](O)[C@H]3O)CC[C@]3(C)C(=CC[C@H]4[C@@]5(C)CC[C@H](O[C@H]6OC[C@@H](O)[C@@H](O)[C@@H]6O)[C@@](C)(CO)[C@H]5CC[C@]43C)[C@@H]2C1 [Decoy930] |  | Type [2]: Inactive (Decoy) |
| COc1cc(-c2ccc(/N=N/c3ccc4c(S(=O)(=O)O)cc(S(=O)(=O)O)c(N)c4c3O)c(OC)c2)ccc1/N=N\c1c(O)ccc2ccccc12 [Decoy851] |  | Type [2]: Inactive (Decoy) |
| COc1cc(-c2ccc(NC(=O)c3ccc(OC)c(OC)c3)c(OC)c2)ccc1NC(=O)c1ccc(OC)c(OC)c1 [Decoy903] |  | Type [2]: Inactive (Decoy) |
| OC[C@@H](O)[C@H](O[C@@H]1O[C@H](CO)[C@@H](O)[C@H](O)[C@H]1O)[C@@H](O)C(/C=N/Nc1ccccc1)=N/Nc1ccccc1 [Decoy791] |  | Type [2]: Inactive (Decoy) |
| COc1ccc(-n2c(=O)[nH]c3cc([C@@H]4N[C@@H](c5ccc(OC)c(OC)c5)NO4)ccc3c2=O)cc1 [Decoy550] | Inactive (Decoy) |  |
| CCN(CC)c1ccc(/C=N/NC(=O)CN(c2cc(Cl)ccc2OC)S(=O)(=O)c2ccc(C)c([N+](=O)[O-])c2)cc1 [Decoy710] | Inactive (Decoy) |  |
| COC(=O)[C@@H]1O[C@@H](O[C@@H]2CC[C@@]3(C)[C@@H](CC[C@@H]4[C@H]5CC[C@@H](/C(COC(C)=O)=N/NC(N)=O)[C@@]5(C)CC(=O)[C@H]43)C2)[C@H](OC(C)=O)[C@@H](OC(C)=O)[C@@H]1OC(C)=O [Decoy622] | Inactive (Decoy) |  |
| CC(=O)Nc1ccc(S(=O)(=O)Nc2nnc(CCNS(=O)(=O)c3ccc(C)cc3)s2)cc1 [Decoy958] |  | Type [2]: Inactive (Decoy) |
| CC(C)(C)c1cc(Br)cc([C@@H](CN(C(=O)CN)C(=O)c2cc(O)cc(N=C3NCC(O)CN3)c2)C(=O)O)c1 (stereo partly drawn) [Decoy598] | Inactive (Decoy) |  |
| NCCNC(=O)Cc1ccc(NC(=O)Cc2ccc(Nc3ncnc4c3ncn4[C@@H]3O[C@H](CO)[C@@H](O)[C@H]3O)cc2)cc1 [Decoy655] |  | Type (sheet 6QHD_actives_decoys, […]): Inactive (Decoy) |
| O=C(O)C[C@H](NC(=O)CN(CCN(CC(=O)O)CC(=O)N[C@@H](CC(=O)O)C(=O)O)CC(=O)O)C(=O)O [Decoy356] | Inactive (Decoy) |  |
| CCCCNC(=O)[C@@H](c1cc([N+](=O)[O-])ccc1Cl)N(Cc1ccc(C)o1)C(=O)c1ccccc1O [Decoy813] |  | Type [2]: Inactive (Decoy) |
| CC(=O)N[C@@H](Cc1ccc(OP(=O)(O)O)cc1)C(=O)N[C@@H](CC(C)C)C(=O)N1CCC[C@H]1C(=O)N[C@@H](CCC(N)=O)C(=O)N[C@H](C(N)=O)[C@H](C)O [CHEMBL505076] (Ac-[pY]LPQ[aThr]-NH2) |  | Type (known STAT3 active): Active |
| COc1ccc(NS(=O)(=O)c2ccc(OC)c(NS(=O)(=O)c3ccc(C#N)cc3)c2)cc1 [Decoy542] |  | Type (sheet 6QHD_actives_decoys, […]): Inactive (Decoy) |
